Data on 19 molecules can be found in ChEMBL document CHEMBL5331054, “Antibacterial quaternary ammonium agents: Chemical diversity and biological mechanism” (Eur J Med Chem, 2022).

Assay [1] deals with Staphylococcus aureus. Briefly: Antibacterial activity against Staphylococcus aureus. Type of assay: functional.
Assay [2] deals with Enterococcus faecalis. Briefly: Antibacterial activity against Enterococcus faecalis ATCC 29212 assessed as inhibition of bacterial growth incubated for 16 to 18 hrs by broth microdilution method. The assay is classed as functional. Particulars: time 16-18 hrs. On the technique in general: In broth dilution the organism is exposed to a series of concentrations in liquid medium.

In assay [3] the test system is Escherichia coli. Briefly: Antibacterial activity against Escherichia coli ATCC 25922 assessed as inhibition of bacterial growth incubated for 16 to 18 hrs by broth microdilution method. Type of assay: functional. The conditions noted are these: time 16-18 hrs.
Assay [4] has as its system Pseudomonas aeruginosa. Briefly: Antibacterial activity against Pseudomonas aeruginosa ATCC 27853 assessed as inhibition of bacterial growth incubated for 16 to 18 hrs by broth microdilution method. Type of assay: functional. The conditions noted are these: time 16-18 hrs.
The subject of assay [5] is Staphylococcus aureus. Briefly: Antibacterial activity against methicillin-resistant Staphylococcus aureus assessed as bacterial growth inhibition measured after 16 to 18 hrs by broth microdilution method. The assay is classed as functional. Particulars: time 16-18 hrs.
Assay [6] has as its system Staphylococcus aureus. The assay is described as follows: Antibacterial activity against Staphylococcus aureus ATCC 29213 assessed as bacterial growth inhibition incubated for 24 hrs by broth dilution method. Type of assay: functional.
Assay [7] has as its system Staphylococcus aureus. The assay is described as follows: Antibacterial activity against Staphylococcus aureus […] assessed as reduction in bacterial growth inhibition measured after 24 hrs. Type of assay: functional.
Assay [8] relates to Escherichia coli. The assay is described as follows: Antibacterial activity against Escherichia coli ATCC 11229 assessed as reduction in bacterial cell growth incubated for 24 hrs by microtiter plate reader assay. Type of assay: functional.
Another assay has as its system Bacillus subtilis. Briefly: Antibacterial activity against Bacillus subtilis ATCC 6633 assessed as reduction in bacterial cell growth incubated for 24 hrs by microtiter plate reader assay. The assay is classed as functional.
The test system of another assay is Salmonella enterica. Briefly: Antibacterial activity against Salmonella enterica ATCC 14028 assessed as reduction in bacterial cell growth incubated for 24 hrs by microtiter plate reader assay. Type of assay: functional.
Assay [9] concerns Staphylococcus aureus. The assay is described as follows: Antibacterial activity against Staphylococcus aureus assessed as bacterial growth inhibition incubated for 72 hrs by microdilution assay. The conditions noted are these: Staphylococcus aureus; time 72 hrs. Type of assay: functional, organism-based.
Assay [10] deals with Staphylococcus aureus. Briefly: Antibacterial activity against methicillin-resistant Staphylococcus aureus assessed as bacterial growth inhibition. The assay is classed as functional.
The test system of assay [11] is Staphylococcus aureus. Briefly: Antimicrobial activity against community acquired methicillin-resistant Staphylococcus aureus assessed as reduction in bacterial cell growth. Type of assay: functional.
Assay [12] relates to Enterococcus faecalis. Briefly: Antimicrobial activity against Enterococcus faecalis. The assay is classed as functional.
Assay [13] relates to Escherichia coli. The assay is described as follows: Antimicrobial activity against Escherichia coli at 50 uM. Type of assay: functional.
Assay [14] relates to Pseudomonas aeruginosa. The assay is described as follows: Antibacterial activity against Pseudomonas aeruginosa ATCC 10145 by broth microdilution method. The assay is classed as functional.
In assay [15] the test system is Staphylococcus aureus. Briefly: Antibacterial activity against methicillin-resistant Staphylococcus aureus assessed as bacterial cell growth inhibition incubated for 18 hrs by microbroth dilution method. The assay is classed as functional.
For assay [16], the system named is Staphylococcus aureus. Briefly: Antibacterial activity against Staphylococcus aureus assessed as log reduction in bacterial load measured after 5 mins. The assay is classed as functional.
Assay [17] relates to Escherichia coli. Briefly: Antibacterial activity against Escherichia coli assessed as log reduction in bacterial load measured after 5 mins. Type of assay: functional.
Assay [18] has as its system Staphylococcus aureus. Briefly: Antibacterial activity against Staphylococcus aureus assessed as bacterial growth inhibition. The assay is classed as functional.
Assay [19] deals with Staphylococcus aureus. Briefly: Antibacterial activity against Staphylococcus aureus assessed as reduction in bacterial growth inhibition measured after 18 to 24 hrs by micro-broth dilution method. Type of assay: functional. Particulars: time 18-24 hrs.
Assay [20] deals with Staphylococcus aureus. The assay is described as follows: Antibacterial activity against methicillin-resistant Staphylococcus aureus […] assessed as reduction in bacterial cell growth. The assay is classed as functional.
The subject of assay [21] is Enterococcus faecalis. The assay is described as follows: Antibacterial activity against Enterococcus faecalis assessed as bacterial growth inhibition incubated for 72 hrs by microdilution method. Type of assay: functional.
In assay [22] the test system is Escherichia coli. The assay is described as follows: Antibacterial activity against Escherichia coli assessed as bacterial growth inhibition incubated for 72 hrs by microdilution method. The conditions noted are these: Escherichia coli, 72 h, read-out: MIC. The assay is classed as functional.
In assay [23] the test system is Pseudomonas aeruginosa. Briefly: Antibacterial activity against Pseudomonas aeruginosa assessed as bacterial growth inhibition incubated for 72 hrs by microdilution method. The assay is classed as functional. Particulars: Pseudomonas aeruginosa, 72 h, read-out: MIC.
For assay [24], the system named is Staphylococcus aureus. The assay is described as follows: Antibiofilm activity against Staphylococcus aureus ATCC 33591 assessed as reduction in biofilm activity. The assay is classed as functional.
Assay [25] relates to Staphylococcus aureus. Briefly: Antibacterial activity against Staphylococcus aureus ATCC 700699 assessed as reduction in bacterial cell growth incubated for 24 hrs by microtiter plate reader assay. The assay is classed as functional.
The test system of assay [26] is Staphylococcus aureus. The assay is described as follows: Antibacterial activity against methicillin-resistant Staphylococcus aureus assessed as bacterial growth inhibition measured after 16 hrs by microplate reader assay. The assay is classed as functional.
Assay [27] deals with Staphylococcus epidermidis. Briefly: Antibacterial activity against methicillin-resistant Staphylococcus epidermidis assessed as bacterial growth inhibition measured after 16 hrs by microplate reader assay. The assay is classed as functional.
The next assay relates to Enterococcus faecium. Briefly: Antibacterial activity against vancomycin-resistant Enterococcus faecium 700221 assessed as reduction in bacterial growth inhibition measured after 16 hrs by microplate reader assay. The assay is classed as functional.
The next assay concerns Streptococcus pyogenes. The assay is described as follows: Antibacterial activity against Streptococcus pyogenes ATCC 19615 assessed as reduction in bacterial growth incubated for 18 hrs by micro-broth dilution assay. The assay is classed as functional.
The test system of assay [28] is Staphylococcus aureus. Briefly: Antibacterial activity against Staphylococcus aureus NBRC 12732 assessed as reduction in bacterial growth by CLSI based broth microdilution method. Type of assay: functional.
Assay [29] has as its system Escherichia coli. The assay is described as follows: Antibacterial activity against Escherichia coli assessed as reduction in bacterial cell growth. Type of assay: functional.
For another assay, the system named is Klebsiella pneumoniae. Briefly: Antibacterial activity against Klebsiella pneumoniae ATCC 700603 assessed as inhibition of bacterial cell growth.
For assay [30], the system named is Staphylococcus aureus. Briefly: Antibacterial activity against methicillin-sensitive Staphylococcus aureus assessed as reduction in microbial growth. The assay is classed as functional.
In assay [31] the test system is Pseudomonas aeruginosa. Briefly: Antibacterial activity against Pseudomonas aeruginosa assessed as reduction in bacterial cell growth. Type of assay: functional.
Assay [32] concerns Staphylococcus aureus. The assay is described as follows: Antibacterial activity against methicillin resistant Staphylococcus aureus assessed as reduction in bacterial cell growth incubated for 18 to 24 hrs by microbroth dilution assay. The assay is classed as functional. Particulars: time 18-24 hrs.
Assay [33] deals with Staphylococcus aureus. The assay is described as follows: Antibacterial activity against Staphylococcus aureus ATCC 29213 assessed as inhibition of bacterial growth incubated for 16 hrs by CLSI based broth microdilution method. Type of assay: functional.
For assay [34], the system named is Enterococcus faecalis. Briefly: Antibacterial activity against Enterococcus faecalis ATCC 29212 assessed as inhibition of bacterial growth incubated for 16 hrs by CLSI based broth microdilution method. The assay is classed as functional.
Assay [35] concerns Enterococcus faecalis. Briefly: Antibacterial activity against vancomycin-resistant Enterococcus faecalis assessed as inhibition of bacterial growth incubated for 16 hrs by CLSI based broth microdilution method. The assay is classed as functional.
Assay [36] relates to Pseudomonas aeruginosa. Briefly: Antibacterial activity against Pseudomonas aeruginosa ATCC 27853 assessed as inhibition of bacterial growth incubated for 16 hrs by CLSI based broth microdilution method. The assay is classed as functional.
The subject of assay [37] is Staphylococcus aureus. The assay is described as follows: Antibacterial activity against Staphylococcus aureus ATCC 700699 assessed as reduction in bacterial growth inhibition incubated for 24 hrs by microbroth-dilution method. The assay is classed as functional.

A value given as a limit tells only on which side of the number the result lay.

Consider `CCCCCCCCCCCC[N+]12CC[N+](CCCCCCCCCCCC)(CC1)CC2`, for which the MIC in the assay on Staphylococcus aureus [1] was found to be 0.25 µM; in the assay on Enterococcus faecalis [2], 4 µM; in the assay on Escherichia coli [3] it was 2 µM; with Pseudomonas aeruginosa [4] it was 8 µM; in the assay with Staphylococcus aureus [5], 0.5 µM.

Consider `CCCC1OCc2c(CO)c(C[N+](C)(C/C=C/C#CC(C)(C)C)Cc3cccc4ccccc34)nc(C)c2O1.[Br-]` (stereo not given), for which the MIC with Staphylococcus aureus [6] was found to be 4 µg/mL.

In the case of `CCOC(=O)c1c[n+](C(C)C)c2cc3c(cc2c1Nc1ccc(OCc2ccccc2)cc1)OCO3`, the MIC with Staphylococcus aureus [7] worked out at 3.12 µM.

Take `CCCCCCCCCCCCCCCCCCNC(=O)CC[C@@H](C)[C@H]1CC[C@H]2[C@@H]3[C@H](OC(=O)C[n+]4ccccc4)C[C@@H]4C[C@H](OC(=O)C[n+]5ccccc5)CC[C@]4(C)[C@H]3C[C@H](O)[C@]12C.[Cl-].[Cl-]`: the MIC in the assay with Escherichia coli [8] is 0.8 µg/mL; in the assay with Bacillus subtilis it was 0.8 µg/mL; with Salmonella enterica, 1.6 µg/mL.

Take `CCCCCCCCCCC[n+]1ccc(CCCc2cc[n+](CCCCCCCCCCC)cc2)cc1`: the MIC in the assay with Staphylococcus aureus [9] was determined as 0.25 µM; in the assay on Staphylococcus aureus [10] it was 0.25 µM; with Staphylococcus aureus [11], 0.25 µM; against Enterococcus faecalis [12], 0.5 µM; in the assay with Escherichia coli [13], 0.5 µM.

Consider `CCCCCCCC[n+]1ccc(SCCCCCCSc2cc[n+](CCCCCCCC)cc2)cc1.[Br-].[Br-]`, for which the minimum inhibitory concentration (MIC) in the assay with Pseudomonas aeruginosa [14] and in the assay with Staphylococcus aureus [15] was 8 µg/mL each time.

Consider `CC1(C)C(=O)N(CCCCCCCCCCCC[n+]2ccccc2)C(=O)N1Cl.[Cl-]`, for which the “log(activity)” value in the assay on Staphylococcus aureus [16] turned out to be 6.62; in the assay with Escherichia coli [17], 2.16.

For the molecule `CCCCCCCCS(=O)(=O)Nc1ccc(-c2ccc(Cl)cc2)cc1C(=O)C(=O)NCCC[N+](C)(C)C.[I-]`, in the assay with Staphylococcus aureus [18], the MIC turned out to be 8 µg/mL.

As for `C[N+](C)(C)CCNC(=O)[C@H](Cc1c[nH]c2ccccc12)NC(=O)c1cc(Cl)ccc1NC(=O)c1ccc2ccccc2c1`, the MIC in the assay with Staphylococcus aureus [19] turned out to be 15.6 µM.

Take `CCCCCCCCCCCC[n+]1cccc(C[N+](C)(C)CCCCCCCCCCCC)c1`: the MIC in the assay with Staphylococcus aureus [20] stood at 1 µM.

Consider `CCCCCCCCCCCCC[N+](C)(C)CCCN(C)CCC[N+](C)(C)CCCCCCCCCCCC.[Br-].[Br-]`, for which the MIC is 1 µM in the assay on Staphylococcus aureus [9], less than 0.25 µM in the assay on Enterococcus faecalis [21], less than 0.25 µM in the assay with Escherichia coli [22] and 4 µM in the assay on Pseudomonas aeruginosa [23]. Also, the MBEC with Staphylococcus aureus [24] was determined as 50 µM.

With `CCCCCCCCCCCCCCCCCC[N+](C)(C)Cc1cnc(C)c(O)c1C.Cl.[Cl-]`, in the assay on Staphylococcus aureus [25], the MIC came out at 0.5 µg/mL.

`CCCCCCCCCCCCCCCCn1cc[n+](Cc2cccc(F)c2)c1C`: the MIC (in the assay on Staphylococcus aureus [26]; in assay [27]; with Enterococcus faecium) was 1.17 µM in each case.

As to `CCCCCCCCCCCCCCC[n+]1ccn(Cc2ccccc2)c1.[Br-]`, the minimum inhibitory concentration (MIC) in the assay with Streptococcus pyogenes was 0.03 µg/mL.

In the case of `C[N+](CCO)(CCO)CCCCCCCCCCCCSc1nnc(-c2ccccc2)o1.[Br-]`, the MIC in the assay on Staphylococcus aureus [28] is 6.25 µg/mL.

Consider `CCCCCCCCC[n+]1cccc(Oc2ccc(-c3ccc(Oc4ccc[n+](CCCCCCCCC)c4)cc3)cc2)c1.[I-].[I-]`, for which the minimum inhibitory concentration (MIC) with Staphylococcus aureus [10] was less than 0.25 µg/mL; with Escherichia coli [29], 0.5 µg/mL; in the assay on Klebsiella pneumoniae, 8 µg/mL.

As for `CCCCCCCCCCC[n+]1ccc(CCc2cc[n+](CCCCCCCCCCC)cc2)cc1`, the MIC is 1 µM with Staphylococcus aureus [30] and 4 µM in the assay with Pseudomonas aeruginosa [31].

Take `CC(C)(C)n1cc[n+](CCCCCCCCCCCC[n+]2ccn(C(C)(C)C)c2)c1.[Br-].[Br-]`: the MIC with Escherichia coli [8] worked out at 0.5 µg/mL; with Staphylococcus aureus [32] it was 0.5 µg/mL; in the assay on Staphylococcus aureus [33] it was 0.25 µg/mL; with Enterococcus faecalis [34] it was 0.5 µg/mL; in the assay with Enterococcus faecalis [35] it was 0.5 µg/mL; in the assay with Pseudomonas aeruginosa [36] it was 4 µg/mL.

In the case of `CCCCCCCCCCCCCCCCCC[N+](C)(C)Cc1cnc(C)c(OC(C)=O)c1C.[Cl-]`, the MIC in the assay on Staphylococcus aureus [37] stood at 1 µg/mL.

By MIC is commonly meant the smallest concentration in the dilution series that meets the test's criterion for growth inhibition.
